Laboratory results taken from patent publication EP0452101B1, “Spiro bridged and unbridged heterocyclic compounds” (ISRAEL INSTITUTE FOR BIOLOGICAL RESEARCH, priority 1990, dated 1991).

What was measured:
[1] = biological target: T1, m3 subtype (SK-N-SH cells) (Homo sapiens, UniProt P20309); assay: PI hydrolysis in SK-N-SH neuroblastoma cells; format: cell-based
T1 construct: endogenous in cells; host or cells: SK-N-SH human neuroblastoma cells
Description: (§1) The new compounds AF150, AF151, AF150(S) and AF125 were assayed for their ability to stimulate PI in CHO cells transfected with m1 and m3 receptors, respectively (Buck and Fraser, loc cit), and in cultured human neuroblastoma cells, line SK-N-SH, which express mainly the m3 subtype, but not the m1 subtype (Pinkas-Kramarski et al, Neurosci. Lett. 188: 335-340, 1990; Luthin et al Mol. Pharmacol. 34: 327-333, 1988). These compounds were also assayed on cultured PC12 cells which express mainly m4 subtype receptors and are coupled to inhibition of AC activity (Pinkas-Kramarski et al, loc cit).
(§2) Stimulation of PI breakdown was assayed using the method described by Stein et al (EMBO J. 7: 3031-3035, 1988), and modulation of AC activity was assayed by the method of Stein et al, loc cit and Pinkas-Kramarski et al (FEBS Lett., 239: 174-178, 1988). […]

M1 muscarinic receptor [2] = biological target: T2, M1 muscarinic receptor (Rattus norvegicus, UniProt P08482); assay: Displacement of 3H-PZ from cortical binding sites, Tris/Mn buffer, with and without GppNHp; parameters: from tissue; host or cells: rat cerebral cortex homogenates
T2 sequence (P08482 1-460): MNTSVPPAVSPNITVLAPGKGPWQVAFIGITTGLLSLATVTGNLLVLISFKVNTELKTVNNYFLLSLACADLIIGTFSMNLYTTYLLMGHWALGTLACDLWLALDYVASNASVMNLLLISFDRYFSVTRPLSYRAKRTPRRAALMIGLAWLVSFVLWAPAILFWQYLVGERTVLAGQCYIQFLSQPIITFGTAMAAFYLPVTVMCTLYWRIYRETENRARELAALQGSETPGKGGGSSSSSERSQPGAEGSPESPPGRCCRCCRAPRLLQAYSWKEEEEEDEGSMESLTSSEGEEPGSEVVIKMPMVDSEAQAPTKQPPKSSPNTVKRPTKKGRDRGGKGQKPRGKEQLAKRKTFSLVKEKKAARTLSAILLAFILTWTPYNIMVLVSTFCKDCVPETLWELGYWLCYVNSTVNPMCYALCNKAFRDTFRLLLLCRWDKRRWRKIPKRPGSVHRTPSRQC
Source text: The binding of agonists to M1 muscarinic receptors and the effect of guanylyl imidophosphate (GppNHp). Agonists are known to be coupled with guanine nucleotide binding proteins (G proteins).
Non-hydrolyzable guanine nucleotides such as GppNHp dissociate the G protein from the receptor and decrease the affinity of the receptor for agonists but not for antagonists. […] Molec.
Under these conditions agonists of high efficacy ("full agonists") bind directly to the M1 receptor subtype with two affinities. […] The ratio of low and high affinities (KL/KH) of the M1 receptor may predict the relative efficacies of agonists to activate putative M1 receptor-mediated second messenger systems.
KH, KL, %H and %L are the apparent inhibition constants of the tested ligands for the high and low affinity sites, respectively. G is GppNHp (guanylyl imidodiphosphate), and was used in 0.1 mM concentration. Displacement of ^3H-PZ from cortical binding sites was performed in Tris/Mn buffer (pH 7.4) for one hour at 25°C; the buffer included 1 mM EDTA and 2mM Mn^++ ions. […] The binding data were analyzed using a GraphPAD program and were fitted to one or two components. Values are means from 1-3 experiments carried out in triplicates.

[3] = tested on: CA1 neurons in the hippocampal slice; assay: Electrophysiological evaluation in rat hippocampal slices
Description: In general terms the effects of microdrops of AF150, ACh and PZ were applied to rat hippocampal cells recorded intracellularly. The exact concentrations of the drug at the receptor sites are not known, using this method. However, this method has an advantage over the perfusion method, in that it gives a more correct picture from the electrophysiological point of view (Segal, loc cit).
Intracellular responses to AF150 of CA1 neurons in the hippocampal slice were recorded, using the method of Segal. Small hyperpolarizing current pulses (current traces not shown) were alternated with stimulation of the Schaffer-commissural afferents producing postsynaptic potentials.

M2 muscarinic receptors = biological target: T3, M2 muscarinic receptors (Rattus norvegicus, UniProt P10980); assay: Displacement of 3H-QNB from rat cerebellum, 50 mM phosphate buffer; format: binding; conditions: cerebellum
T3 construct: displacing from rat brain homogenates, cerebellum or frontal cortex; from tissue; host or cells: rat cerebellum homogenates
T3 sequence (P10980 1-466): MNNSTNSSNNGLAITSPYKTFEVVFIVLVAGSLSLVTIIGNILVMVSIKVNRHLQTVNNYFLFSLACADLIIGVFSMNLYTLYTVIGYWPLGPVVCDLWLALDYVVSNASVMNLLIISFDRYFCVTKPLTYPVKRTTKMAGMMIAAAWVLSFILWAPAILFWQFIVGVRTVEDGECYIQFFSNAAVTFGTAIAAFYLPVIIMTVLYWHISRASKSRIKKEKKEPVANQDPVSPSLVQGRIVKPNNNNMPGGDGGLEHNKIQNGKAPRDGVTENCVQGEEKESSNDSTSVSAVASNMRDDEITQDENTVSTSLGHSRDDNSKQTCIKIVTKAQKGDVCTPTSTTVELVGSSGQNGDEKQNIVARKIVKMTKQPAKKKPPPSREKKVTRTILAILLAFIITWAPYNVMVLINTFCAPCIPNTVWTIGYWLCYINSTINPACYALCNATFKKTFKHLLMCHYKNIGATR

m3 receptors = m3 receptors (Rattus norvegicus, UniProt P08483); assay: PI hydrolysis in CHO cells transfected with m3 receptors; format: cell-based; conditions: CHO m3; tested at 1mM
Description: as §1, §2

muscarinic receptors = assay: (-)3H-QNB binding to rat cerebral cortex homogenates with and without Cu++ treatment
M1 muscarinic receptor [4] = biological target: T2, M1 muscarinic receptor; assay: Displacement of 3H-PZ from rat cerebral cortex, 10 mM phosphate buffer; format: binding; parameters: from tissue; host or cells: rat cerebral cortex homogenates; conditions: for % H / Ki: cortex, Table 4; for Ki: read-out: 3H-PZ-Binding KH (a)
[5] = biological target: T4, m4 subtype receptors (PC12 cells) (Rattus norvegicus, UniProt P08485); assay: Inhibition of adenylate cyclase activity in PC12 cells; format: cell-based
T4 construct: endogenous in cells; host or cells: PC12 cells
T4 sequence (P08485 1-478): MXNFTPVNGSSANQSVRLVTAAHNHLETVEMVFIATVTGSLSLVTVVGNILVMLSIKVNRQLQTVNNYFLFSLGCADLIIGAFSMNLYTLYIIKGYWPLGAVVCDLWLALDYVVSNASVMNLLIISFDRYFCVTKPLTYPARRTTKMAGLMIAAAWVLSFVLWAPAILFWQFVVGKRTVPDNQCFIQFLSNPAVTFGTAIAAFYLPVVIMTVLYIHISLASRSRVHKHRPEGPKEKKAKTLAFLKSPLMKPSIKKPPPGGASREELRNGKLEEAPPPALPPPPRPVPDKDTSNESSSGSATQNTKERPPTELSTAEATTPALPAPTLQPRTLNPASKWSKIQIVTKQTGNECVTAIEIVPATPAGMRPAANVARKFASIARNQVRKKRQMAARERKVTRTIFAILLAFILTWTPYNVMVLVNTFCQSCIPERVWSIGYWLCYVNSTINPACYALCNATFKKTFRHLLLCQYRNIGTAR
Description: as §1, §2

M1 muscarinic receptor [6] = biological target: T2, M1 muscarinic receptor; assay: Displacement of 3H-QNB from rat cerebral cortex, 50 mM phosphate buffer; format: binding; conditions: cortex, Table 5
m1 receptors = biological target: T5, m1 receptors (Rattus norvegicus, UniProt P08482); assay: PI hydrolysis in CHO cells transfected with m1 receptors; format: cell-based
T5 construct: expressed in transfected cells; host or cells: CHO cells
T5 sequence (P08482 1-460): T2 sequence (P08482 1-460)

[7] = Chemical stability (thermal, aqueous solution); format: physicochemical; conditions: free base, monitored with 1H-NMR
Source text: Most of these compounds are relatively stable. […] Its chemical behaviour resembles that of known 2-oxazoline derivatives. […] The formation of the decomposition products can be monitored with ^1H-NMR by inspection at two regions δ 3.3-3.5 (appearance of two doublets) and 1.9-2.0 ppm (appearance of two additional singlets).
The expected decomposition pattern (when e.g., X is O and Y is N) involves opening of the oxazoline ring to form both amide and ester as shown in Scheme E, in which the quinuclidine-derived compounds are depicted illustratively. The formation of two new singlets at δ 1.9-2.0 ppm as expected for R = Me of these two structures are in agreement with this supposition. [drawing 32]
Ring opening is much faster in the presence of dilute hydrochloric acid. […] The tendency to decomposition of such salts complicates the optical separation of compounds such as AF125 and AF123. However, this problem can be overcome by using the method described for the optical separation of the enantiomers of AF125, or alternatively the amino-alcohols such as 3-aminomethylquinuclidin-3-ol can be resolved and the separated enantiomers can then be cyclized using an ester or imidate as already described. In yet another alternative the N-acyl derivatives of (e.g.) 3-aminomethylquinuclidin-3-ol can be resolved and the separated enantiomers can then be cyclized per se as shown in Scheme K: [drawing 33] […]

[8] = tested on: Male white mice of the CD-1 strain; assay: Pharmacodynamic profile and general toxicity, Part B (signs, mortality, LD50); format: in vivo; conditions: Table 10
Source text: Male white mice of the CD-1 strain (Charles River, UK), within the body weight range of 18-26 g, were used throughout this study, carried out on AF123, AF125 and AF125(N).
Furthermore, these initial trials clearly established that the major signs of reactions to treatment consisted primarily of signs characteristic for potential cholinomimetic activity of the test material, such as tremors, salivation, lacrimation, diarrhea, analgesia, hypothermia and vasodilation. […]

[9] = 400 mg/kg p.os, animals affected/treated

T1 sequence (P20309 whole entry): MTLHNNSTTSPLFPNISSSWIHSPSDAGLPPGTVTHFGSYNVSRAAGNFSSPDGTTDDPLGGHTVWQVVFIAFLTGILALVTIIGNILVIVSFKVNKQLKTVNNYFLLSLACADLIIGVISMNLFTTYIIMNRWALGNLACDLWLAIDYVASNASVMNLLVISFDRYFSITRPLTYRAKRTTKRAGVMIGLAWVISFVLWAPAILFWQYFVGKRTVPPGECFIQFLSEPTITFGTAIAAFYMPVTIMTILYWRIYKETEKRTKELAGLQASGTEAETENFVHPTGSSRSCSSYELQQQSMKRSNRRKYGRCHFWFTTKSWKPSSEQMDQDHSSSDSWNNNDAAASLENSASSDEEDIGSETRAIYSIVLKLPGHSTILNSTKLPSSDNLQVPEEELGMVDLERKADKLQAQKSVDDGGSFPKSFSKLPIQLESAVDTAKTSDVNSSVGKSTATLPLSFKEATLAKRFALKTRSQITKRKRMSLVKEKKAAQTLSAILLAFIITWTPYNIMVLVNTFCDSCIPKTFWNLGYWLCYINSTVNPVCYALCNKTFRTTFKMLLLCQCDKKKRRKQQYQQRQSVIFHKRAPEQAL
Chain of m3 receptors (P08483 whole entry): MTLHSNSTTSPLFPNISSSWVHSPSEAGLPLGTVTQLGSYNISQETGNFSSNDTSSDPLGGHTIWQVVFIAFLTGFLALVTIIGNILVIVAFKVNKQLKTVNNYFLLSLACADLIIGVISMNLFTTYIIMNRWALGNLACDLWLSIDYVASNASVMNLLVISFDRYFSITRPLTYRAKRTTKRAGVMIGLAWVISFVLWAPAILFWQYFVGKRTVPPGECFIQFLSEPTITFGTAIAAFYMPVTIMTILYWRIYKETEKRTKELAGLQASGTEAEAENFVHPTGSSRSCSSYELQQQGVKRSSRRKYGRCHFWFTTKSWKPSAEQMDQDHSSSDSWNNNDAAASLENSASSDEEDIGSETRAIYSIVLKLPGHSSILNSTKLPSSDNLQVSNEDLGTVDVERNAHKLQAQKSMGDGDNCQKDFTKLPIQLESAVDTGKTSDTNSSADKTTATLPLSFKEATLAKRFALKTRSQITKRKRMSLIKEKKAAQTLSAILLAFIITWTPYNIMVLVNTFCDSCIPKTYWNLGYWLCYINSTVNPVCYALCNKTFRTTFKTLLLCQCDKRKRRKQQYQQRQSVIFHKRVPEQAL

CC1OC2(CS1)CN1CCC2CC1 (stereo not drawn) [AF102B, cis-2-methylspiro(1,3-oxathiolane-5',3)quinuclidine, reference compound]
block of oxotremorine-M-induced phosphoinositide hydrolysis [1]: completely blocked
PI (phosphoinositides hydrolysis) ([1]; SK-N-SH m3, tested at 1mM): -
inhibition at 1000 µM ([1]; SK-N-SH, read-out: inhibition of the oxotremorine-M signal): 34%
stimulation of phosphoinositide hydrolysis ([1]; even at 1 mM): failed to stimulate phosphoinositide hydrolysis
Ki (M1 muscarinic receptor [2]; +G (0.1 mM GppNHp), read-out: KH): 700 to 1000 nM
Ki (M1 muscarinic receptor [2]; +G (0.1 mM GppNHp), read-out: KL): 700 to 1000 nM
Ki (M1 muscarinic receptor [2]; -G (without GppNHp), read-out: KH): 700 to 1000 nM
Ki (M1 muscarinic receptor [2]; -G, read-out: KL): 700 to 1000 nM
slow AHP (Ca++-dependent K+ conductance) ([3]; applied topically by microdrops): block the slow AHP
depolarization ([3]; applied topically by microdrops (AF150: 100 µM)): not shown in the case of AF102B
Ki (M2 muscarinic receptors; 3H-QNB-Binding KH2 (c), Table 5): 5900 nM
Ki (M2 muscarinic receptors; 3H-QNB-Binding KH (c), Table 4): 6000 nM
% H (M2 muscarinic receptors; Table 4): 100%
% H2 (M2 muscarinic receptors; Table 5): 100%
PI (phosphoinositides hydrolysis) (m3 receptors): -
%H (% of high affinity state) (muscarinic receptors; with Cu++ pretreatment (100 µM, 30 minutes)): 26%
%H (% of high affinity state) (muscarinic receptors; with Cu++ pretreatment (100 µM, 30 minutes), listed as 4): 26±5%
%H (% of high affinity state) (muscarinic receptors; without pretreatment): 0%
% H (M1 muscarinic receptor [4]): 100%
Ki (M1 muscarinic receptor [4]): 1000 nM
AC, % of carbachol effect ([5]; PC12 m4): 40%
effective concentration which induces the effect ([5]; PC12 m4, AC activity, footnote b): 0.1^b µM
AC (adenylate cyclase activity) ([5]; PC12 m4, tested at 1mM): +
% H1 (M1 muscarinic receptor [6]): 100%
PI, % of carbachol effect (m1 receptors; CHO m1): 20%
effective concentration which induces the effect (m1 receptors; CHO m1, PI hydrolysis, footnote b): 30^b µM
PI (phosphoinositides hydrolysis) (m1 receptors; CHO m1, tested at 1mM): +

CCC1=NCC2(CN3CCC2CC3)O1 (racemic) [AF123, 2-Ethyl spiro(1,3 oxazoline 5,3')quinuclidine]
decomposition in aqueous solution [7]: same pattern of decomposition
Ki (M2 muscarinic receptors; 3H-QNB-Binding KH (c), Table 4): 3900 nM
% H (M2 muscarinic receptors; Table 4): 100%
Mortality no. ([8]; 50 mg/kg i.v.): 0/5
Mortality no. ([8]; 100 mg/kg i.v.): 5/5
Mortality time ([8]; 100 mg/kg i.v.): 1 min
Convulsive seizure (Con) ([8]; 100 mg/kg i.v., animals affected/treated): 5/5
Mortality no. ([8]; 200 mg/kg i.v.): 5/5
Mortality time ([8]; 200 mg/kg i.v.): immed
Mortality no. ([8]; 200 mg/kg p.os): 0/5
Mortality time ([8]; 200 mg/kg p.os): 3 min
Tremors (Tre) ([8]; 200 mg/kg p.os, animals affected/treated): 4/5
Mortality no. ([8]; 400 mg/kg p.os): 5/5
Mortality time ([8]; 400 mg/kg p.os): 3 min
Convulsive seizure (Con) [8, 9]: 5/5
Respiratory distress (Res) [8, 9]: 5/5
Tremors (Tre) [8, 9]: 5/5
RATIOS c:a (M1 muscarinic receptor [4]; KH cerebellum (3H-QNB) : KH cortex (3H-PZ)): 3.0
% H (M1 muscarinic receptor [4]): 100%
Ki (M1 muscarinic receptor [4]): 1300 nM
